Test system: HBV
Experiment: HBV replication inhibition assay (BDNA assay) in HepG2.2.15 cells
Type: cell-based
Conditions: Hepatitis B virus, 144 h, 6 days treatment, encapsidated HBV DNA in supernatant by branched DNA QuantiGene assay
Protocol: HBV replication inhibition by the disclosed compounds were determined in cells infected or transfected with HBV or cells with stably integrated HBV, such as HepG2.2.15 cells (Sells et al. 1987). In this example, HepG2.2.15 cells were maintained in cell culture medium containing 10% fetal bovine serum (FBS), Geneticin, L-glutamine, penicillin and streptomycin. HepG2.2.15 cells were seeded in 96-well plates at a density of 40,000 cells/well and were treated with serially diluted compounds at a final DMSO concentration of 0.5% either alone or in combination by adding drugs in a checker box format. Cells were incubated with compounds for three days, after which medium was removed and fresh medium containing compounds was added to cells and incubated for another three days. At day 6, supernatant was removed and treated with DNase at 37° C. for 60 minutes, followed by enzyme inactivation at 75° C. for 15 minutes. Encapsidated HBV DNA was released from the virions and covalently linked HBV polymerase by incubating in lysis buffer (Affymetrix QS0010) containing 2.5 μg proteinase K at 50° C. for 40 minutes. HBV DNA was denatured by addition of 0.2 M NaOH and detected using a branched DNA (BDNA) QuantiGene assay kit according to manufacturer recommendation (Affymetrix). HBV DNA levels were also quantified using qPCR, based on amplification of encapsidated HBV DNA extraction with QuickExtraction Solution (Epicentre Biotechnologies) and amplification of HBV DNA using HBV specific PCR probes that can hybridize to HBV DNA and a fluorescently labeled probe for quantitation. In addition, cell viability of HepG2.2.15 cells incubated with test compounds alone or in combination was determined by using CellTitre-Glo reagent according to the manufacturer protocol (Promega). The mean background signal from wells containing only culture medium was subtracted from all other samples, and percent inhibition at each compound concentration was calculated by normalizing to signals from HepG2.2.15 cells treated with 0.5% DMSO using equation El.
E1: % inhibition=(DMSOave−Xi)/DMSOave×100%
where DMSOave is the mean signal calculated from the wells that were treated with DMSO control (0% inhibition control) and Xi is the signal measured from the individual wells. EC50 values, effective concentrations that achieved 50% inhibitory effect, were determined by non-linear fitting using Graphpad Prism software (San Diego, Calif.) and equation E2.
E2: Y=Ymin+(Ymax−Ymin)/(1+10(Log EC50-X)×HillSlope)
where Y represents percent inhibition values and X represents the logarithm of compound concentrations.
Selected disclosed compounds were assayed in the HBV replication assay (BDNA assay), as described above, and a representative group of these active compounds is shown in Table 3.

Row | Compound | EC50 [nM]
1 | N#Cc1cc(NC(=O)N2CCc3nn4c(c3C2)OCC=C(CO)C4)ccc1F [Example 1, N-(3-Cyano-4-fluorophenyl)-4-(hydroxymethyl)-5,8,9,11-tetrahydropyrido-[4′,3′:3,4]pyrazolo[5,1-b] [1,3] oxazepine-10(2H)-carboxamide] | 18
2 | N#Cc1cc(NC(=O)N2CCc3nn4c(c3C2)SCCC(O)C4)ccc1F (stereo not shown) [Example 2, N-(3-Cyano-4-fluorophenyl)-4-hydroxy-2,3,4,5,8,9-hexahydropyrido[4′,3′:3,4]-byrazolo[5,1-b][1,3]thiazepine-10(11H)-carboxamide] | 15
3 | N#Cc1cc(NC(=O)N2CCc3nn4c(c3C2)SCC(O)CC4)ccc1F (stereo not shown) [Example 3, N-(3-Cyano-4-fluorophenyl)-3-hydroxy-2,3,4,5,8,9-hexahydropyrido[4′,3′:3,4]-pyrazolo[5,1-b][1,3]thiazepine-10(11H)-carboxamide] | 5
4 | N#Cc1cc(NC(=O)N2CCc3nn4c(c3C2)[S+]([O-])CCC(O)C4)ccc1F (stereo not shown) [Example 4, N-(3-Cyano-4-fluorophenyl)-4-hydroxy-2,3,4,5,8,9-hexahydropyrido[4′,3′:3,4]-pyrazolo[5,1-b][1,3]thiazepine-10(11H)-carboxamide 1-oxide] | 834
5 | N#Cc1cc(NC(=O)N2CCc3nn4c(c3C2)S(=O)(=O)CCC(O)C4)ccc1F (stereo not shown) [Example 5, N-(3-Cyano-4-fluorophenyl)-4-hydroxy-2,3,4,5,8,9-hexahydropyrido[4′,3′:3,4]-pyrazolo[5,1-b][1,3]thiazepine-10(11H)-carboxamide 1,1-dioxide] | 40
6 | N#Cc1cc(NC(=O)N2CCc3nn4c(c3C2)[S+]([O-])CC(O)CC4)ccc1F (stereo not shown) [Example 6, N-(3-Cyano-4-fluorophenyl)-3-hydroxy-2,3,4,5,8,9-hexahydropyrido[4′,3′:3,4]-pyrazolo[5,1-b][1,3]thiazepine-10(11H)-carboxamide 1-oxide] | 141
7 | N#Cc1cc(NC(=O)N2CCc3nn4c(c3C2)S(=O)(=O)CC(O)CC4)ccc1F (stereo not shown) [Example 7, N-(3-Cyano-4-fluorophenyl)-3-hydroxy-2,3,4,5,8,9-hexahydropyrido[4′,3′:3,4]-pyrazolo[5,1-b][1,3]thiazepine-10(11H)-carboxamide 1,1-dioxide] | 3.5

Source: US20220251114A1, “AZEPINES AS HBV CAPSID ASSEMBLY MODULATORS” (Janssen Sciences Ireland Unlimited Company, priority 2019, published 2022)
